Experimental data as given in ChEMBL document CHEMBL3588828, “A Selective, Cell-Permeable Nonphosphorylated Bicyclic Peptidyl Inhibitor against Peptidyl-Prolyl Isomerase Pin1” (J Med Chem, 2015).
Activity calls are given as the source filed them. No cut-off for these calls is given here.

Key:
HeLa [1] = test: Growth inhibition of human HeLa cells at 5 uM incubated for 3 days by MTT assay; assay type: functional
HeLa [2] = test: Drug uptake in human HeLa cells assessed as mean fluorescence intensity at 5 uM using FITC-labeled compound incubated for 2 hrs by flow cytometry (reference value: 86); assay type: ADME, cell-based
HeLa [3] = test: Antiproliferative activity against human HeLa cells assessed as reduction in cell growth incubated for 72 hrs by MTT assay; assay type: functional, cell-based; conditions: hela
[4] = molecular target: Peptidyl-prolyl cis-trans isomerase NIMA-interacting 1 (Homo sapiens, UniProt Q13526, S16A/Y23A); test: Binding affinity to N-terminal MBP fused and Texas-red-labeled full-length human Pin1 S16A/Y23A mutant expressed in Escherichia coli assessed as increase in fluorescence anisotropy by spectrofluorimetry
[5] = test system: Peptidyl-prolyl cis-trans isomerase NIMA-interacting 1 (Homo sapiens), Q13526 [S16A,Y23A]; test: Binding affinity to N-terminal MBP fused and Texas-red-labeled full-length human Pin1 S16A/Y23A mutant expressed in Escherichia coli assessed as increase in fluorescence anisotropy at 5 uM by spectrofluorimetry
[6] = molecular target: Peptidyl-prolyl cis-trans isomerase NIMA-interacting 1 (Homo sapiens) (UniProt Q13526); test: Inhibition of Pin1 in human HeLa cells assessed as increase in PML protein levels at 0.2 to 5 uM incubated for 2 hrs by Western blotting method relative to untreated control; assay type: cell-based

## C[C@H](OP(=O)(O)O)[C@H]1NC(=O)CN(C)C(=O)[C@@H](C)NC(=O)[C@H](CCCCN)NC(=O)[C@H](Cc2ccc(O)cc2)NC(=O)[C@H](Cc2ccc3ccccc3c2)NC(=O)[C@H]2CCCCN2C1=O
HeLa [1]
  growth inhibition (GI): inactive
HeLa [2]
  Flu intensity: 193
HeLa [3]
  IC50: Not Active
[4]; read-out: Kd
  Kd: 240 nM

## CC[C@H](C)[C@@H]1NC(=O)[C@H](Cc2ccccc2)N(C)C(=O)c2cc3cc(c2)C(=O)NC[C@H](NC(=O)[C@@H](C)NC(=O)[C@H](C)NC(=O)[C@H](CCCNC(=N)N)NC(=O)[C@H](Cc2ccc4ccccc4c2)NC(=O)[C@H]2CCCCN2C(=O)[C@@H](CCC(=O)O)NC1=O)C(=O)N[C@@H](Cc1ccccc1)C(=O)N[C@@H](Cc1ccc2ccccc2c1)C(=O)N[C@@H](CCCNC(=N)N)C(=O)N[C@@H](CCCNC(=N)N)C(=O)N[C@@H](CCCNC(=N)N)C(=O)N[C@@H](CCCNC(=N)N)C(=O)N[C@H](C(=O)N[C@@H](CCCCN)C(=O)O)CNC3=O
[5]
  Activity: > 50%
[4]; read-out: Kd
  Kd: 1250 nM

## C[C@@H]1NC(=O)[C@H](CCCNC(=N)N)NC(=O)[C@H](Cc2ccc3ccccc3c2)NC(=O)[C@H]2CCCCN2C(=O)[C@@H]([C@H](C)O)NC(=O)[C@H](c2ccccc2)NC(=O)[C@H](Cc2cnc[nH]2)NC(=O)c2cc3cc(c2)C(=O)NC[C@H](NC(=O)[C@@H](C)NC1=O)C(=O)N[C@@H](Cc1ccccc1)C(=O)N[C@@H](Cc1ccc2ccccc2c1)C(=O)N[C@@H](CCCNC(=N)N)C(=O)N[C@@H](CCCNC(=N)N)C(=O)N[C@@H](CCCNC(=N)N)C(=O)N[C@@H](CCCNC(=N)N)C(=O)N[C@H](C(=O)N[C@@H](CCCCN)C(=O)O)CNC3=O
[5]
  Activity: > 50%
[4]; read-out: Kd
  Kd: 1400 nM

## C[C@@H]1NC(=O)[C@H](CCCNC(=N)N)NC(=O)[C@H](Cc2ccc3ccccc3c2)NC(=O)[C@H]2CCCCN2C(=O)[C@@H](CCC(=O)O)NC(=O)[C@H](Cc2cnc[nH]2)NC(=O)[C@H](c2ccccc2)NC(=O)c2cc3cc(c2)C(=O)NC[C@H](NC(=O)[C@@H](C)NC1=O)C(=O)N[C@@H](Cc1ccccc1)C(=O)N[C@@H](Cc1ccc2ccccc2c1)C(=O)N[C@@H](CCCNC(=N)N)C(=O)N[C@@H](CCCNC(=N)N)C(=O)N[C@@H](CCCNC(=N)N)C(=O)N[C@@H](CCCNC(=N)N)C(=O)N[C@H](C(=O)N[C@@H](CCCCN)C(=O)O)CNC3=O
[5]
  Activity: > 50%
[4]; read-out: Kd
  Kd: 1470 nM

## C[C@@H]1NC(=O)[C@H](CCCNC(=N)N)NC(=O)[C@H](Cc2ccc3ccccc3c2)NC(=O)[C@H]2CCCCN2C(=O)[C@@H]([C@H](C)O)NC(=O)CNC(=O)[C@H](Cc2ccccc2)N(C)C(=O)c2cc3cc(c2)C(=O)NC[C@H](NC(=O)[C@@H](C)NC1=O)C(=O)N[C@@H](Cc1ccccc1)C(=O)N[C@@H](Cc1ccc2ccccc2c1)C(=O)N[C@@H](CCCNC(=N)N)C(=O)N[C@@H](CCCNC(=N)N)C(=O)N[C@@H](CCCNC(=N)N)C(=O)N[C@@H](CCCNC(=N)N)C(=O)N[C@H](C(=O)N[C@@H](CCCCN)C(=O)O)CNC3=O
[5]
  Activity: > 50%
[4]; read-out: Kd
  Kd: 1080 nM

## C[C@@H]1NC(=O)[C@H](CCCNC(=N)N)NC(=O)[C@H](Cc2ccc3ccccc3c2)NC(=O)[C@H]2CCCCN2C(=O)[C@@H](CC(=O)O)NC(=O)CN(C)C(=O)[C@@H]2CCCN2C(=O)c2cc3cc(c2)C(=O)NC[C@H](NC(=O)[C@@H](C)NC(=O)[C@@H](C)NC1=O)C(=O)N[C@@H](Cc1ccccc1)C(=O)N[C@@H](Cc1ccc2ccccc2c1)C(=O)N[C@@H](CCCNC(=N)N)C(=O)N[C@@H](CCCNC(=N)N)C(=O)N[C@@H](CCCNC(=N)N)C(=O)N[C@@H](CCCNC(=N)N)C(=O)N[C@H](C(=O)N[C@@H](CCCCN)C(=O)O)CNC3=O
[4]; read-out: Kd
  Kd: 2490 nM

## C[C@@H]1NC(=O)[C@H](CCCNC(=N)N)NC(=O)[C@H](Cc2ccc3ccccc3c2)NC(=O)[C@@H](C)NC(=O)[C@@H]([C@H](C)O)NC(=O)CN(C)C(=O)[C@@H](C)NC(=O)c2cc3cc(c2)C(=O)NC[C@H](NC(=O)[C@@H](C)NC1=O)C(=O)N[C@@H](Cc1ccccc1)C(=O)N[C@@H](Cc1ccc2ccccc2c1)C(=O)N[C@@H](CCCNC(=N)N)C(=O)N[C@@H](CCCNC(=N)N)C(=O)N[C@@H](CCCNC(=N)N)C(=O)N[C@@H](CCCNC(=N)N)C(=O)N[C@H](C(=O)N[C@@H](CCCCN)C(=O)O)CNC3=O
HeLa [1]
  growth inhibition (GI): inactive
HeLa [2]
  Flu intensity: 8730
HeLa [3]
  IC50: Not Active
[4]
  Kd: Not Active
[6]
  inhibition: inactive

## C[C@@H]1NC(=O)[C@H](CCCNC(=N)N)NC(=O)[C@H](Cc2ccc3ccccc3c2)NC(=O)[C@H]2CCCCN2C(=O)[C@@H]([C@H](C)O)NC(=O)[C@H](Cc2ccc(F)cc2)NC(=O)[C@@H](Cc2ccccc2)NC(=O)c2cc3cc(c2)C(=O)NC[C@H](NC(=O)[C@@H](Cc2ccccc2)NC1=O)C(=O)N[C@H](CCCNC(=N)N)C(=O)N[C@@H](CCCNC(=N)N)C(=O)N[C@H](CCCNC(=N)N)C(=O)N[C@@H](CCCNC(=N)N)C(=O)N[C@@H](Cc1ccc2ccccc2c1)C(=O)N[C@@H](Cc1ccccc1)C(=O)N[C@H](C(=O)N[C@@H](CCCCN)C(=O)O)CNC3=O
[4]; read-out: Kd
  Kd: 3100 nM
